The text below walks through data of article PMC8165160, “Substrate Specificities and Inhibition Pattern of the Solute Carrier Family 10 Members NTCP, ASBT and SOAT” (Frontiers in Molecular Biosciences, 2021).

Test [1] deals with T1, ASBT (Homo sapiens, UniProt Q12908).
T1 construct: The full-length open reading frames of NTCP, ASBT, and SOAT were cloned; expressed in transfected cells; host or cells: Flp-In T-REX HEK293 (ASBT-HEK293), tetracycline-induced
T1 sequence (Q12908 1-348): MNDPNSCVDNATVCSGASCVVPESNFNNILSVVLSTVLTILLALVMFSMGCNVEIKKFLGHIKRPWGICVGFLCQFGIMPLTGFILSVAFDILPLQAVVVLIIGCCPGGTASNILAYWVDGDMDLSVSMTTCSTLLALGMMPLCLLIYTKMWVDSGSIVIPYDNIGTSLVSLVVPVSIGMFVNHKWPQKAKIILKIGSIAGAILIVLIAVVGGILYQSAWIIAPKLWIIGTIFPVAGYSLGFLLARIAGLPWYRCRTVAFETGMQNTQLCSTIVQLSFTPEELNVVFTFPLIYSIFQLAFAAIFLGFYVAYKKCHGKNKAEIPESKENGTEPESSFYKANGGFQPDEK
Description: Substrate screening: sodium-dependent uptake of radiolabeled compounds in ASBT-HEK293 cells. It counts as cell-based. The following applies: radiolabeled bile acids 1 µM, 30 min, ASBT-HEK293, vs sodium-free control. How it is done: Stably SLC10 transporter transfected NTCP-HEK293, ASBT-HEK293, SOAT-HEK293 cells and the HEK293-FlpIn maternal cell line were seeded on 24-well plates (if not stated otherwise for individual assays). Well plates were coated with poly-D-lysine prior to seeding of 125,000 cells per well. Cells were grown with 1 ml of standard medium per well with or without tetracycline ([…]) for 72 h to induce carrier expression before respective assays were started. HEK293-FlpIn cells were cultivated with standard medium and served as control.
(§1) Uptake experiments were initiated by replacing the preincubation buffer by 500 μL transport buffer containing the radiolabeled test compound and were performed at 37°C. Transport was terminated by removing the transport buffer and washing five-times with ice-cold PBS. Cell monolayers were lysed in 1 N NaOH with 0.1% SDS and the cell-associated radioactivity was determined by liquid scintillation counting.
FIGURE 1 Comparative substrate screening for bile acids and sulfated steroids in NTCP-, ASBT-, and SOAT-HEK293 cells. Transport assays were performed with the indicated substrates in NTCP-HEK293, ABST-HEK293, SOAT-HEK293, and HEK293-FlpIn cells. Cells were washed and equilibrated with Na^+-containing transport buffer (filled bars) or with Na^+-free transport buffer (open bars) at 37°C. For uptake, cells were incubated with radiolabeled steroid compounds at a final concentration of 200 nM in Na^+-containing or Na^+-free transport buffer for 10 min. Radiolabeled bile acids were used at 1 µM concentrations and transport was analyzed over 30 min. HEK293-FlpIn cells served as additional controls. After the indicated time intervals, cells were washed with ice-cold PBS, lysed and subjected to liquid scintillation counting. […] 3-OH, trihydroxylated BAs; 2-OH, dihydroxylated BAs; 1-OH, monohydroxylated BAs.

Test [2] addresses T1, ASBT. Description: Transport kinetics (concentration-dependent uptake) in ASBT-HEK293 cells. In kind it is cell-based. The following applies: uptake via ASBT, 1 min, 37°C. As for the experimental part:
as §1
FIGURE 2 NTCP, ASBT, and SOAT transport kinetics. Concentration-dependent uptake was analyzed in NTCP-HEK293, ASBT-HEK293, and SOAT-HEK293 cells for the indicated substrates at increasing substrate concentrations. Stably transfected HEK293 cells were pretreated with 1 μg/ml tetracycline to induce carrier expression. HEK293-FlpIn cells were used as control. Uptake was analyzed for 1 min at 37°C. Afterward, the medium was removed and each cell monolayer was washed and processed to determine the protein content and cell-associated radioactivity. Specific uptake was calculated by subtracting non-specific uptake of the HEK293-FlpIn control cells (open squares) from uptake into carrier-overexpressing HEK293 cells (filled squares) and is shown by broken lines. The values represent means ± SD of duplicate experiments, each with triplicate determinations (n = 6).

Test [3] has as its target T2, NTCP (Homo sapiens, UniProt Q14973).
T2 sequence (Q14973 1-349): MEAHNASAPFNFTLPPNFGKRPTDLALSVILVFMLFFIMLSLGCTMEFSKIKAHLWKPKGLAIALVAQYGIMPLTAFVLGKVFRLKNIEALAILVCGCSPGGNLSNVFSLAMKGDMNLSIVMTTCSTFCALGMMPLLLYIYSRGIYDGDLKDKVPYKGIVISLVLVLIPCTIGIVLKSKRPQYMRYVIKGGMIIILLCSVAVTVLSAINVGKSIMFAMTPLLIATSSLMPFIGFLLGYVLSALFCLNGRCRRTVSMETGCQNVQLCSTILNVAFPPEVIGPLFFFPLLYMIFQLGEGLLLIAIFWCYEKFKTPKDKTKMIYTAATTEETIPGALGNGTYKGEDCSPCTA
The test can be described thus: Transport inhibition in NTCP-HEK293 cells. The following applies: substrate inhibitors, 1 min after 5 min preincubation.

Test [4] concerns the target T2, NTCP. The test can be described thus: Binding of fluorescent myr-preS1-Al633 peptide to NTCP-HEK293 cells. Set-up: The full-length open reading frames of NTCP, ASBT, and SOAT were cloned; expressed in transfected cells; host or cells: Flp-In T-REX HEK293 (NTCP-HEK293), tetracycline-induced.
Description: NTCP-HEK293 cells were seeded into 24-well-dishes as described above. For every set of induced wells an equal number of not-induced wells were used as respective background controls. Cells were washed three times with PBS and then preincubated with sodium transport buffer supplemented with MEM-amino acid solution (ThermoFisher) at 1:50 dilution at 37°C for 5 min. The fluorescent myr-preS1-Al633 peptide was added with a final concentration of 10 nM and binding experiments were performed over 10 min at 37°C. […] For calculation of the NTCP-specific binding signal, the mean background signal from the not-induced cells was subtracted. Net binding rates in the absence of any inhibitor were set to 100%.
(B) Binding of the fluorescent myr-preS1-Al633 peptide was analyzed in NTCP-HEK293 cells in the presence of increasing concentrations of TC, DHEAS, or TLC. […] Fluorescence was quantified by a fluorescence reader and values are expressed as percentage of control.
Another test deals with T3, SOAT (Homo sapiens, UniProt Q3KNW5).
T3 construct: The full-length open reading frames of NTCP, ASBT, and SOAT were cloned; expressed in transfected cells; host or cells: Flp-In T-REX HEK293 (SOAT-HEK293), tetracycline-induced
T3 sequence (Q3KNW5 1-377): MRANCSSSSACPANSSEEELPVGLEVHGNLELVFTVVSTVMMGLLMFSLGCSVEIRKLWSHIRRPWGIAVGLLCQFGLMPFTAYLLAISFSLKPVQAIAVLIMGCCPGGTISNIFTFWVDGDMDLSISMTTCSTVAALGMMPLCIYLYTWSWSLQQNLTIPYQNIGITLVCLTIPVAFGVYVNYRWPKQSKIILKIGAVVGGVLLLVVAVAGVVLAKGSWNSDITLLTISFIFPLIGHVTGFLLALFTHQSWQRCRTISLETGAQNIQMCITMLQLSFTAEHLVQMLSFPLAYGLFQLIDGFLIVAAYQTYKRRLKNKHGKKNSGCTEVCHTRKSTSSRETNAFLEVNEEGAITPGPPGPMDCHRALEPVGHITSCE
Set-up: method as in Geyer et al. (2007). The following applies: uptake via SOAT, same SOAT-HEK293 cell line; ref Geyer et al. (2007); cited from earlier work.

Setting [5] is: NTCP IC50, substrate [3H]DHEAS, 200 nM [3H]DHEAS.
[6] abbreviates: NTCP IC50, substrate [3H]TC, 200 nM [3H]TC.
Setting [7] is: NTCP IC50, substrate [3H]TLC, 200 nM [3H]TLC.

As a reminder, the IC50 is the concentration at which inhibition is half-maximal.

Counter-ions that a name gives are not always drawn.

For the compound `C[C@H](CCC(=O)NCCS(=O)(=O)O)[C@H]1CC[C@H]2[C@@H]3[C@H](O)C[C@@H]4C[C@H](O)CC[C@]4(C)[C@H]3C[C@H](O)[C@]12C` [Taurocholic acid], the “Transport activity grading ASBT (mean uptake)” value on ASBT [1] was “++ (“++” for values between 500 and 1000)”. Moreover, at ASBT [2], the “Apparent K m” value amounted to 14.7 ± 1.5 µM and the V max was determined as 1821 ± 75.1 pmol/mg protein/min.
On to `C[C@H](CCC(=O)NCCS(=O)(=O)O)[C@H]1CC[C@H]2[C@@H]3CC[C@@H]4C[C@H](O)CC[C@]4(C)[C@H]3CC[C@]12C` [Taurolithocholic acid], for which, on ASBT [1], the “Transport activity grading ASBT (mean uptake)” value is listed as “+++ (“+++” for values above 1000 pmol/mg protein/30 min)”. The “Apparent K m” value at ASBT [2] was 5.9 ± 1.8 µM. This compound showed a V max on ASBT [2] of 1585 ± 99.7 pmol/mg protein/min. For the same compound, the IC50 was found to be 1.8 µM against NTCP [3] (setting [5]); 1.7 µM against NTCP [3] (setting [6]); 1.4 µM on NTCP [3] (setting [7]); 4.3 µM at NTCP [4] (10 nM myr-preS1-Al633, 10 min, 37°C, NTCP-HEK293, read-out: IC50 for inhibition of myr-preS1 peptide binding to NTCP).
`C[C@]12CC[C@H](OS(=O)(=O)O)CC1=CC[C@@H]1[C@@H]2CC[C@]2(C)C(=O)CC[C@@H]12` [DHEAS, Dehydroepiandrosterone sulfate]: the “Apparent K m” value at SOAT is recorded as 28.7 ± 3.9 µM. Also, the V max at SOAT is 1899 ± 81 pmol/mg protein/min. Also, the concentration for half-maximal inhibition (IC50) worked out at 3.4 µM on NTCP [3] (setting [5]), 21.5 µM at NTCP [3] (setting [6]), 432 µM on NTCP [3] (setting [7]) and 52 µM on NTCP [4].
